According to patent US20100173835A1, “Peptides for Treatment of Obesity” (Novo Nordisk A/S, priority 2008, published 2010):
Where two headings read alike, the source gives them in different places. *1 amine or outer side, *2 acyl side, *3 side chain or, on linkers, in order; H or OH if unused. Where a SMILES comes first, the peptide text is derived from it. Bridges are numbered along the chain shown (N, C = ends). [ ]: non-standard residue; d: D form. The star is where a group is joined. Palmitoyl(16-(5-tetrazolyl)) = O=C(CCCCCCCCCCCCCCCc1nnn[nH]1)*; X1 = O=C(O)CN(CC(=O)O)C[C@H](N[*:1])C(=O)[*:2]; Hyp = O=C(O)[C@@H]1C[C@@H](O)CN1; NTA = O=C(O)CN(CC(=O)O)CC(=O)*; Nle = CCCC[C@H](N)C(=O)O; Dap = NC[C@H](N)C(=O)O; AEEA = NCCOCCOCC(=O)O

Key:
[1] = target: T1, MC1 receptor (Homo sapiens, UniProt Q01726); assay: Assay (IV) Melanocortin Receptor 1 (MC1) binding assay
T1 construct: expressed in transfected cells
T1 sequence (Q01726 whole entry): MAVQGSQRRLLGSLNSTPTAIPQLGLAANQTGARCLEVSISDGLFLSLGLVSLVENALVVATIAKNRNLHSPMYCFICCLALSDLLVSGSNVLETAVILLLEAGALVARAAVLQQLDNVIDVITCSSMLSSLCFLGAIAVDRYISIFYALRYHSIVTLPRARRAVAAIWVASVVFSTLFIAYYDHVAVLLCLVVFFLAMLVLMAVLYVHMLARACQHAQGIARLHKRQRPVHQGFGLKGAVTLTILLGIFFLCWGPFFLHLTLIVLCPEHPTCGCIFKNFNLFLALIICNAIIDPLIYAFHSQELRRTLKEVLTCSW
Procedure: Assay (IV)—Melanocortin Receptor 1 (MC1) Binding Assay
The MC1 receptor binding assay is performed on BHK cell membranes stably expressing the MC1 receptor. The assay is performed in a total volume of 250 NI: 25 μl of ^125NDP-α-MSH (22 pM in final concentration), 25 μl of test compound/control and 200 μl of cell membrane (25 μg/ml). Test compounds are dissolved in DMSO. Radioactively labeled ligand, membranes and test compounds are diluted in buffer: 25 mM HEPES, pH 7.4, 0.1 mM CaCl2, 1 mM MgSO4, 1 mM EDTA, 0.1% HSA and 0.005% Tween™ 20. Alternatively, HSA may be substituted with ovalbumin. The samples are incubated at 30° C. for 90 min. in Costar round-bottom microtiter plates. Incubation is terminated by filtration on a Packard harvester filtermate. Rapid filtration through Packard Unifilter-96 GF/B filters pre-treated with polyethylenimine (PerkinElmer 6005277). The filters are washed with ice-cold 0.9% NaCl 8-10 times. The plates is air dried at app. 55° C. for 30 min, and 50 μl Microscint 0 (Packard, cat. No. 6013616) is added to each well. The plates are counted in a Topcounter (1 min/well).
(§1) The data are analysed by non-linear regression analysis of binding curves, using the Windows™ program GraphPad™ Prism (GraphPad Software, USA).

[2] = target: T2, human MC4 receptor (Homo sapiens, UniProt P32245); assay: Assay (V) Melanocortin Receptor 4 (MC4) binding assay; conditions: 125NDP-α-MSH binding, BHK cell membranes
T2 construct: expressed in transfected cells
T2 sequence (P32245 whole entry): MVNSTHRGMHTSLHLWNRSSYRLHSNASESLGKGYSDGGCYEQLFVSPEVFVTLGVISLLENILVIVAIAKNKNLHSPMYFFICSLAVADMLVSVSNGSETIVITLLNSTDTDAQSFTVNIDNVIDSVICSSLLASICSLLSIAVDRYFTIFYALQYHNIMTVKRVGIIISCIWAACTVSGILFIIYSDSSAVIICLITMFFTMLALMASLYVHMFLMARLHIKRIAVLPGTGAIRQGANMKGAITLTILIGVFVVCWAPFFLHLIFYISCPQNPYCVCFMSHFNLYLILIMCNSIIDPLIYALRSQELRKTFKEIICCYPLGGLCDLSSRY
Procedure: Assay (V)—Melanocortin Receptor 4 (MC4) Binding Assay
In vitro ^125NDP-α-MSH binding to recombinant BHK cells expressing human MC4 receptor (filtration assay).
The assay is performed in 5 ml minisorb vials (Sarstedt No. 55.526) or in 96-well filterplates (Millipore MADVN 6550), and using BHK cells expressing the human MC4 receptor using BHK cells stably expressing the human MC4 receptor. The membranes were prepared from frozen or fresh cells that were homogenized in 20 mM HEPES pH 7.1, 5 mM MgCl2 and 1 mg/ml bacitracin and centrifuged at 15000 rpm at 4° C., 10 min in a Sorvall RC 5B plus, SS-34 rotor. The supernatant was discarded, and the pellets were re-suspended in buffer, homogenized and centrifuged two more times. The final pellets were resuspended in the buffer mentioned above, and the protein concentration was measured and adjusted with buffer to 14 to 17 mg/ml and the membrane preparation were kept at −80° C. until assay. The assay was run directly on a dilution of this cell membrane suspension, without any further preparation. The BHK cell membranes are kept at −80° C. until assay, and the assay is run directly on a dilution of this cell membrane suspension, without further preparation. The suspension is diluted to give maximally 10% specific binding, i.e. to approx. 50-100 fold dilution. The assay is performed in a total volume of 200 μl: 50 μl of cell suspension, 50 μl of ^125NDP-α-MSH (≈79 pM in final concentration), 50 μl of test compound and 50 μl binding buffer (pH 7) mixed and incubated for 2 h at 25° C. [binding buffer: 25 mM HEPES, pH 7.0, 1 mM CaCl2, 1 mM MgSO4, 1 mM EGTA, 0.02% Bacitracin, 0.005% Tween™ 20 and 0.1% HSA or, alternatively, 0.1% ovalbumin (Sigma; catalogue No. A-5503)]. Test compounds are dissolved in DMSO and diluted in binding buffer. Radiolabelled ligand and membranes are diluted in binding buffer. The incubation is stopped by dilution with 2×100 μl ice-cold 0.9% NaCl. The radioactivity retained on the filters is counted using a Cobra II auto gamma counter.
as §1

Row | Compound | Ki ([1]; 125NDP-α-MSH binding, BHK cell membranes, read-out: Assay (IV) MC1 Ki) [nM] | Ki ([2]; read-out: Assay (V) MC4 [Ki]) [nM] | Ki [1] [nM] | Ki ([2]; Assay (V) MC4 [Ki] (nM)) [nM]
1 | CCCC[C@H](NC(=O)[C@H](CN(CC(=O)O)CC(=O)O)NC(=O)[C@H](Cc1ccc(O)cc1)NC(=O)[C@H](CCC(N)=O)NC(=O)[C@H](CO)NC(=O)CNC(=O)COCCOCCNC(=O)CCCCCCCCCCCCCCCc1nnn[nH]1)C(=O)N[C@H]1CCC(=O)NCCCC[C@@H](C(N)=O)NC(=O)[C@H](Cc2c[nH]c3ccccc23)NC(=O)[C@H](CCCNC(=N)N)NC(=O)[C@@H](Cc2ccccc2)NC(=O)[C@@H]2C[C@@H](O)CN2C1=O [Example 23, (2-{2-[16-(Tetrazol-5-yl)hexadecanoylamino]ethoxy}ethoxy)acetyl-Gly-Ser-Gln-Tyr-Dap(biscarboxymethyl)-Nle-c[Glu-Hyp-D-Phe-Arg-Trp-Lys]-NH2] ({Palmitoyl(16-(5-tetrazolyl))-AEEA}-GSQY[X1][Nle]E[Hyp][dF]RWK-NH2; lactam 7-12) | > 10000 | 7.9 | – | –
2 | CCCC[C@H](NC(=O)[C@H](CNC(=O)CN(CC(=O)O)CC(=O)O)NC(=O)[C@H](CO)NC(=O)[C@H](CCC(N)=O)NC(=O)[C@H](CO)NC(=O)CNC(=O)COCCOCCNC(=O)CCCCCCCCCCCCCCCc1nnn[nH]1)C(=O)N[C@H]1CCC(=O)NCCCC[C@@H](C(N)=O)NC(=O)[C@H](Cc2c[nH]c3ccccc23)NC(=O)[C@H](CCCNC(=N)N)NC(=O)[C@@H](Cc2ccccc2)NC(=O)[C@@H]2C[C@@H](O)CN2C1=O [Example 4, (2-{2-[16-(Tetrazol-5-yl)hexadecanoylamino]ethoxy}ethoxy)acetyl-Gly-Ser-Gln-Ser-Dap(BCMA)-Nle-c[Glu-Hyp-D-Phe-Arg-Trp-Lys]-NH2] ({Palmitoyl(16-(5-tetrazolyl))-AEEA}-GSQS[Dap](NTA)[Nle]E[Hyp][dF]RWK-NH2; lactam 7-12) | – | – | 4800 | 5.67
3 | CCCC[C@H](NC(=O)[C@H](CN(CC(=O)O)CC(=O)O)NC(=O)[C@H](Cc1c[nH]cn1)NC(=O)[C@H](CCC(N)=O)NC(=O)[C@H](CO)NC(=O)CNC(=O)COCCOCCNC(=O)CCCCCCCCCCCCCCCc1nnn[nH]1)C(=O)N[C@H]1CCC(=O)NCCCC[C@@H](C(N)=O)NC(=O)[C@H](Cc2c[nH]c3ccccc23)NC(=O)[C@H](CCCNC(=N)N)NC(=O)[C@@H](Cc2ccccc2)NC(=O)[C@@H]2C[C@@H](O)CN2C1=O [Example 6, (2-{2-[16-(Tetrazol-5-yl)hexadecanoylamino]ethoxy}ethoxy)acetyl-Gly-Ser-Gln-His-Dap(biscarboxymethyl)-Nle-c[Glu-Hyp-D-Phe-Arg-Trp-Lys]-NH2] ({Palmitoyl(16-(5-tetrazolyl))-AEEA}-GSQH[X1][Nle]E[Hyp][dF]RWK-NH2; lactam 7-12) | – | – | 5860 | 2.9
